# Measurements: publication PMC9090415, “Discovery of small molecule inhibitors of Plasmodium falciparum apicoplast DNA polymerase” (Journal of Enzyme Inhibition and Medicinal Chemistry, 2022)
# Biological target: P. falciparum apicoplast DNA polymerase (Pf-apPOL) (Plasmodium falciparum, UniProt Q8ILY1)
# Assay: Fluorescence-based high-throughput DNA polymerase assay (molecular beacon), primary screen and dose-response
# Assay type: biochemical
# Protocol: The HT assay employs a molecular beacon, a stem-loop DNA template with a Cy3 dye and the Black Hole Quencher on the 3′ and 5′ ends of the DNA, respectively. Pf-apPOL concentration is based on a calculated absorptivity of ε280 = 56750 M^−1 cm^−1. Reactions were carried out at 25 °C, using Corning 3575 […] (well-volume, 20 µL). Assays testing for compound inhibition composed of reaction buffer (pH 7.9 in 50 mM potassium acetate, 20 mM Tris-acetate and 10 mM magnesium acetate), Pf-apPOL (20 nM), DNA substrate (20 nM), dNTPs (6 µM), and compound (10 µM in DMSO). The DNA and nucleotide substrates (dNTPs) were at concentrations of 20 nM and 6 µM, respectively, in the assay. Pf-apPOL was incubated in the reaction buffer with dNTPs and the compound of interest (10 µM, in the assay) at 25 °C for 10 min. The DNA substrate was then added and the reaction was allowed to proceed for 90 min at 25 °C.
# Each assay plate contained 16 negative controls (no Pf-apPOL, DMSO present) and 16 positive controls (Pf-apPOL present, no DMSO). The fluorescence of each well was determined using a BioTek Synergy Neo fluorescence plate reader using excitation and emission wavelengths of 555 and 570 nm, respectively.
# In the above, Min is the average of fluorescence emission of the negative controls (substrate only), Max the average fluorescence emission from the positive controls (enzyme + substrate), and Test the emission from the assays in the presence of compounds (enzyme + compound + substrates). […] […] The IC50 of each compound was determined using Equation (2): (2) IC50= Vmax/(1+ (I/IC50)^n)
# In the above, n measures cooperativity, with n > 1 indicating synergistic binding of more than a single molecule of the compound.
# To identify apPOL inhibitors we utilised our previously developed high-throughput DNA polymerase assay. The HT assay is based on a molecular beacon DNA template that forms a stem-loop with a Cy3 dye and the Black Hole Quencher on the 3′ and 5′ ends of the DNA, respectively. DNA polymerase activity extends an annealed primer through the stem region, displacing the fluorophore from the quencher, thereby increasing its fluorescence (Figure 1(A)). The assay accurately recapitulates the kinetic behaviour of apPOL, as measured through more conventional low-throughput gel-based assays. The Z′ factor for the assay described here was 0.9 across all plates (data not shown).
# Figure 1. High-throughput screening. (A) The fluorescent-based DNA polymerase assay used to screen the compound libraries. The DNA template strand is a hairpin loop with a primer annealed to the loop. The 3’ end of the primer is 11 bases away from the 6 bp duplex. Strand displacement activity of the DNA polymerase separates the Cy3 dye from the Black hole quencher leading to an increase in fluorescent signal. (B) The high-throughput assay workflow. The DNA polymerase is incubated with […] compound for 10 min prior to addition of the hairpin substrate. The reaction is quenched at 3 different time points and the fluorescent signal is measured and % inhibition is determined using the provided equation.
# Chain of P. falciparum apicoplast DNA polymerase (Pf-apPOL) (Q8ILY1 entry or part of it): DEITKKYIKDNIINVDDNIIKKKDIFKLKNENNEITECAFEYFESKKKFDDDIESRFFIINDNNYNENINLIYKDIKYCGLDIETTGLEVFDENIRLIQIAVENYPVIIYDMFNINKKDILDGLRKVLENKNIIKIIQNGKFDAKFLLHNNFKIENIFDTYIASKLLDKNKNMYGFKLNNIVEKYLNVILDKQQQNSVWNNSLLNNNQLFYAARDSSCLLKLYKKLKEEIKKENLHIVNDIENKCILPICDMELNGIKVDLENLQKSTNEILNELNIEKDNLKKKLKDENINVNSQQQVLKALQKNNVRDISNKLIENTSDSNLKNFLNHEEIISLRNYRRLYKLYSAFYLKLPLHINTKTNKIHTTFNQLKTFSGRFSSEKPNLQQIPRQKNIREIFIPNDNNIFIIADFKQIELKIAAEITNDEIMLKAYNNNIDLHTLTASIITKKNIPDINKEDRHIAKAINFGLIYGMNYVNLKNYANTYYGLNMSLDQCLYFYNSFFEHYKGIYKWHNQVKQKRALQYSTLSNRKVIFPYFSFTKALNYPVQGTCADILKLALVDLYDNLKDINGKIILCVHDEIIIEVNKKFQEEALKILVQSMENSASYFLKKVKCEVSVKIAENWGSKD
compound,measurement,setting,value
"CN(C)C=C1SCc2ccccc2C1=O [Molecule 77, CN(C=C1SCc2c(C1=O)cccc2)C]",DNA Pol,"'DNA Pol'; screening value, unit not given; 90 min, 10 µM",85
same,% inhibition Apo pol 10',DRC-1; 10'; concentration 2.5,11.5763%
same,% inhibition Apo pol 10',DRC-1; 10'; concentration 5,16.7667%
same,% inhibition Apo pol 10',DRC-1; 10'; concentration 10,31.6418%
same,% inhibition Apo pol 10',DRC-1; 10'; concentration 20,51.9221%
same,% inhibition Apo pol 10',DRC-1; 10'; concentration 40,56.5642%
same,% inhibition Apo pol 10',DRC-1; 10'; concentration 80,84.5209%
same,% inhibition Apol 90',DRC-1; 90'; concentration 2.5,2.782%
same,% inhibition Apol 90',DRC-1; 90'; concentration 5,3.396%
same,% inhibition Apol 90',DRC-1; 90'; concentration 10,10.9684%
same,% inhibition Apol 90',DRC-1; 90'; concentration 20,24.755%
same,% inhibition Apol 90',DRC-1; 90'; concentration 40,26.7268%
same,% inhibition Apol 90',DRC-1; 90'; concentration 80,62.9199%
same,% inhibition apPOL 180',DRC-1; 180'; concentration 2.5,-2.727%
same,% inhibition apPOL 180',DRC-1; 180'; concentration 5,-5.416%
same,% inhibition apPOL 180',DRC-1; 180'; concentration 10,0.7299%
same,% inhibition apPOL 180',DRC-1; 180'; concentration 20,8.887%
same,% inhibition apPOL 180',DRC-1; 180'; concentration 40,10.8248%
same,% inhibition apPOL 180',DRC-1; 180'; concentration 80,43.5104%
same,% inhibition Apo pol 5',"DRC-2, 5', concentration 2.5",2.65%
same,% inhibition Apo pol 5',"DRC-2, 5', concentration 5",5.48%
same,% inhibition Apo pol 5',"DRC-2, 5', concentration 10",20%
same,% inhibition Apo pol 5',"DRC-2, 5', concentration 20",33%
same,% inhibition Apo pol 5',"DRC-2, 5', concentration 40",41%
same,% inhibition Apo pol 5',"DRC-2, 5', concentration 80",52%
same,% inhibition Apol 40',"DRC-2, 40', concentration 2.5",2%
same,% inhibition Apol 40',"DRC-2, 40', concentration 5",4%
same,% inhibition Apol 40',"DRC-2, 40', concentration 10",13%
same,% inhibition Apol 40',"DRC-2, 40', concentration 20",26%
same,% inhibition Apol 40',"DRC-2, 40', concentration 40",34%
same,% inhibition Apol 40',"DRC-2, 40', concentration 80",57%
same,% inhibition ApPOL 90',"DRC-2, 90', concentration 2.5",0.807%
same,% inhibition ApPOL 90',"DRC-2, 90', concentration 5",1%
same,% inhibition ApPOL 90',"DRC-2, 90', concentration 10",8%
same,% inhibition ApPOL 90',"DRC-2, 90', concentration 20",18%
same,% inhibition ApPOL 90',"DRC-2, 90', concentration 40",26%
same,% inhibition ApPOL 90',"DRC-2, 90', concentration 80",54%
same,% inhibition apPOL 180',"DRC-2, 180', concentration 2.5",-3%
same,% inhibition apPOL 180',"DRC-2, 180', concentration 5",-3.45%
same,% inhibition apPOL 180',"DRC-2, 180', concentration 10",0.193%
same,% inhibition apPOL 180',"DRC-2, 180', concentration 20",7.49%
same,% inhibition apPOL 180',"DRC-2, 180', concentration 40",14%
same,% inhibition apPOL 180',"DRC-2, 180', concentration 80",45%
same,% inhibition Apol 40',conc 20 (unit not given); 40'; DRC-2,26%
same,% inhibition ApPOL 90',conc 40 (unit not given); 90'; DRC-2,26%
same,DNA Pol,"primary screen hit value, DNA Pol (186 hits); 90 min, 10 µM",85
Cc1cc(C)cc(-n2nc3c(c2NC(=O)c2ccco2)CSC3)c1 [KU0055926],% inhibition Apo pol 10',DRC-1; 10'; concentration 2.5,8.0326%
same,% inhibition Apo pol 10',DRC-1; 10'; concentration 5,29.0516%
same,% inhibition Apo pol 10',DRC-1; 10'; concentration 10,59.7607%
same,% inhibition Apo pol 10',DRC-1; 10'; concentration 20,82.6519%
same,% inhibition Apo pol 10',DRC-1; 10'; concentration 40,88.4046%
same,% inhibition Apo pol 10',DRC-1; 10'; concentration 80,87.3935%
same,% inhibition Apol 90',DRC-1; 90'; concentration 2.5,-0.9298%
same,% inhibition Apol 90',DRC-1; 90'; concentration 5,15.258%
same,% inhibition Apol 90',DRC-1; 90'; concentration 10,43.5557%
same,% inhibition Apol 90',DRC-1; 90'; concentration 20,72.7845%
same,% inhibition Apol 90',DRC-1; 90'; concentration 40,86.0941%
same,% inhibition Apol 90',DRC-1; 90'; concentration 80,88.1488%
same,% inhibition apPOL 180',DRC-1; 180'; concentration 2.5,-5.803%
same,% inhibition apPOL 180',DRC-1; 180'; concentration 5,4.111%
same,% inhibition apPOL 180',DRC-1; 180'; concentration 10,27.2882%
same,% inhibition apPOL 180',DRC-1; 180'; concentration 20,60.1388%
same,% inhibition apPOL 180',DRC-1; 180'; concentration 40,79.5226%
same,% inhibition apPOL 180',DRC-1; 180'; concentration 80,84.9587%
same,% inhibition Apo pol 5',DRC-2; 5'; concentration 2.5,11%
same,% inhibition Apo pol 5',DRC-2; 5'; concentration 5,21%
same,% inhibition Apo pol 5',DRC-2; 5'; concentration 10,38%
same,% inhibition Apo pol 5',DRC-2; 5'; concentration 20,50%
same,% inhibition Apo pol 5',DRC-2; 5'; concentration 40,54%
same,% inhibition Apo pol 5',DRC-2; 5'; concentration 80,54%
same,% inhibition Apol 40',DRC-2; 40'; concentration 2.5,12%
same,% inhibition Apol 40',DRC-2; 40'; concentration 5,24%
same,% inhibition Apol 40',DRC-2; 40'; concentration 10,41%
same,% inhibition Apol 40',DRC-2; 40'; concentration 20,60%
same,% inhibition Apol 40',DRC-2; 40'; concentration 40,69%
same,% inhibition Apol 40',DRC-2; 40'; concentration 80,71%
same,% inhibition ApPOL 90',DRC-2; 90'; concentration 2.5,10%
same,% inhibition ApPOL 90',DRC-2; 90'; concentration 5,21%
same,% inhibition ApPOL 90',DRC-2; 90'; concentration 10,38%
same,% inhibition ApPOL 90',DRC-2; 90'; concentration 20,60%
same,% inhibition ApPOL 90',DRC-2; 90'; concentration 40,71%
same,% inhibition ApPOL 90',DRC-2; 90'; concentration 80,74%
same,% inhibition apPOL 180',DRC-2; 180'; concentration 2.5,6.36%
same,% inhibition apPOL 180',DRC-2; 180'; concentration 5,13%
same,% inhibition apPOL 180',DRC-2; 180'; concentration 10,27%
same,% inhibition apPOL 180',DRC-2; 180'; concentration 20,53%
same,% inhibition apPOL 180',DRC-2; 180'; concentration 40,68%
same,% inhibition apPOL 180',DRC-2; 180'; concentration 80,74%
same,% inhibition Apo pol 5',conc. 5; 5'; DRC-2,21%
same,% inhibition ApPOL 90',conc. 5; 90'; DRC-2,21%
same,% inhibition Apo pol 5',conc. 10; 5'; DRC-2,38%
same,% inhibition ApPOL 90',conc. 10; 90'; DRC-2,38%
same,% inhibition Apol 40',conc. 20; 40'; DRC-2,60%
same,% inhibition ApPOL 90',conc. 20; 90'; DRC-2,60%
same,% inhibition Apo pol 5',conc. 40; 5'; DRC-2,54%
same,% inhibition ApPOL 90',conc. 40; 90'; DRC-2,71%
same,% inhibition Apo pol 5',conc. 80; 5'; DRC-2,54%
same,% inhibition Apol 40',conc. 80; 40'; DRC-2,71%
same,% inhibition ApPOL 90',conc. 80; 90'; DRC-2,74%
same,% inhibition apPOL 180',conc. 80; 180'; DRC-2,74%
same,DNA Pol,"primary screen value by plate and well; 90 min, 10 µM",58
same,DNA Pol,"primary screen value of the 186 hits; unit not given; 90 min, 10 µM",58
